# Data reported in article PMC11494455 (Nature chemical biology, 2022).
# Biological target: THP4.1 biosensor (Salmonella typhimurium, UniProt Q8ZR43)
# Assay: Dose response and ligand response of the THP4.1 biosensor
# Type: cell-based
# Conditions: pThpR reporter
# Sequence of THP4.1 biosensor (Q8ZR43 whole entry): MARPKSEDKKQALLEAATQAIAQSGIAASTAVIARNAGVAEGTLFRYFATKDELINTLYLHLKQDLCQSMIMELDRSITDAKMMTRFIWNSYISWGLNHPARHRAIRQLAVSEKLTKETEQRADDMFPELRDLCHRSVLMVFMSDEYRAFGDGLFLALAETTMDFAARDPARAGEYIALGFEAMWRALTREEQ
smiles,measurement,value
COc1ccc(C[C@@H]2NCCc3cc(OC)c(O)cc32)cc1O [norreticuline],responsiveness of THP4.1,somewhat responsive
